Oligonucleotides are written 5' to 3', each unit as a sugar letter and its base; * is a phosphorothioate linkage, no mark a phosphodiester; rarer units and linkages stand in square brackets, end groups in braces. Plain capitals give the bases only. {FAM} = fluorescein (FAM) label; r = 2'-OH (RNA)
Key:
Lin28_ZKD [1] = target: T1, Lin28_ZKD (Homo sapiens, UniProt Q9H9Z2); assay: Fluorescence polarization competition assay (displacement of let7FAM from Lin28_ZKD); assay type: binding; settings: competition FP, conjugate vs parent
T1 construct: construct encoding amino acids 124–186 of human Lin28; His6; made in house; host or cells: Escherichia coli BL21 (DE3) Codon+ (RIL)
T1 sequence (Q9H9Z2 124-186): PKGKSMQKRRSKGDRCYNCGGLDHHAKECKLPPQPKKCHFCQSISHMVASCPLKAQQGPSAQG
Protocol: (§1) Fluorescence Polarization Assay. Fluorescence polarization titration assay was carried out by titrating Lin28_ZKD protein into FAM-labeled PreE-let-7 at a 10 nM final concentration and buffer (10 mM HEPES, 150 mM NaCl, 10 µM ZiCl2, pH 7,4). The assay plate was briefly vortexed, and air bubbles were removed by spinning at 1000 rpm. The fluorescence anisotropy was measured on a Spectra Max Paradigm multimode plate reader (Molecular Devices). The fluorescence polarization competition […]
preE-let-7. The concentration of Lin28_ ZKD is kept at 40 nM, a value in the range of the dissociation constant of Lin28_ZKD and preE-let-7 determined through fluorescence polarization titration assay, whereas preE-let-7 concentration is kept constant at 10 nM. FP competitive binding assays were performed on 384-well plates (#3575, Corning) with a total well volume of 10 µL.
(§2) Fluorescence polarization readings were transferred into Prism 7.0 (GraphPad). All fluorescence polarization assays were repeated at least three times and the anisotropy values fitted using GraphPad Prism software using 1:1 binding/inhibition model. […]

Lin28A [2] = assay: Western blot of Lin28A in NT2/D1 cells; assay type: cell-based, human; settings: 2 μM, three independent experiments
Description: Finally, we tested RNA‐PROTACs for their ability to degrade their target in two cell lines: the embryonic NT2/D1 cell line, which expresses high levels of Lin28A, ^[13a] and K562 cells which express Lin28A and Lin28B. […] Finally, we co‐treated K562 cells with ORN3P1 and MG132, a reversible inhibitor of the 26S proteasome. […] In order to explore the versatility of RNA‐PROTACs with non peptide‐based VHL ligands, we conjugated small‐molecule VH032 ^[38] to ORN3 via an amino linker to yield ORN3VH032 (Figure S1). […]

myc-Lin28A = assay: Ubiquitination assay of myc-Lin28A in 22Rv1 cells; assay type: cell-based; settings: HA-Ub co-transfected, 500 nM, 48 h, anti-HA western blot after cMyc IP
Protocol: (§3) Next, we investigated the ability of ORN3P1 and ORN7P1 to mediate ubiquitination of Lin28 in cells, using a previously described protocol. ^[32] Cells from the prostate cancer cell line 22RV1, which express very low levels of Lin28, were co‐transfected with two plasmids expressing pCMV‐myc‐Lin28A and HA‐tagged polyubiquitin (HA‐Ub).
(§4) After 48 h of incubation with ORN3P1 and ORN7P1, the tagged Lin28 (and the control QKI) was immunoprecipitated using an anti‐Myc antibody. The isolated protein was then analyzed by western blotting using the anti‐HA and anti‐c‐Myc antibodies. Consistent with other previously described PROTAC reagents,[ ^32 , ^33 ]
(§5) The protein extracts (12-17 µg) were run on a 4-20% SDS-PAGE and transferred on a nitrocellulose blotting membrane 0.22 µm (GE Healthcare) using the Trans-Blot transfer device (Biorad). Membranes were blocked with 5% milk and incubated with the primary antibody overnight at 4 °C. Membranes were washed with 0.05% PBS-T and reacted with the secondary antibody for 1 h in 5% milk. The proteins were detected using the anti-lin28a antibody (Cell Signaling technology, D9F5), anti-lin28b antibody (Cell Signaling technology, 4196S), anti-rbfox1 (NovusBio, NBP2-13169SS), at 1:1000 and anti-hrnp c antibody […]
(§6) (Abcam, AB133607) at 1:10000 dilutions. […]
(§7) on a ChemiDoc MP imager (Biorad). The intensity of the signal was quantified using the ImageJ-Fiji software. […]

Lin28A [3] = assay: Pull-down RNA ELISA, gymnosis, anti-Lin28A; assay type: cell-based, human; settings: 3'-biotin conjugates, K562 cells, 2 µM, 24 h; streptavidin plate; vs mock or FUS antibody
Description: Humans express two paralogs of the protein, LIN28 (Lin28A) and LIN28B (Lin28B), that play key roles in development, metabolism, and pluripotency. ^[34] Lin28 proteins are abundantly expressed during embryonic development, as well as in several tumors and tumor‐derived cell lines. ^[35] […] In order to confirm that RNA‐PROTACs bind to endogenous Lin28 in cells, we performed a pull‐down RNA ELISA assay that we have previously described. ^[36] Thus, we conjugated a biotin group to the 3′ ends of ORN3P1 and ORN7P1 and added these reagents separately on to myelogenous leukemia K562 cells. We incubated lysates from treated cells on streptavidin‐coated plates so as to capture the RNA‐PROTACs present in the cell lysates. We then assayed for the presence of Lin28A in the plates using an anti‐Lin28A antibody and a negative control anti‐FUS antibody. […]
as §5, with “Membranes were blocked with 5% milk and incubated with the primary antibody overnight at 4 °C. Membranes were washed with 0.05% PBS-T and reacted with the secondary antibody for 1 h in 5% milk.” left out
as §7

QKI (pDEST-Myc-QKI) = assay: Ubiquitination assay of Myc-QKI (negative control RBP) in 22Rv1 cells; assay type: cell-based; settings: pDEST-Myc-QKI and HA-Ub, 500 nM, 48 h
Protocol: as §3, §4, §5, §6, §7

Lin28_ZKD [4] = target: T1, Lin28_ZKD; assay: Fluorescence polarization titration, Lin28_ZKD binding to preE-let-7f-1-FAM; settings: Lin28_ZKD titrated into FAM-labeled preE-let-7, 10 nM; 10 mM HEPES, 150 mM NaCl, pH 7.4; read-out: K D of the Lin28_ZKD/let7FAM interaction
Protocol: as §1, with “Devices).” for “Devices). The fluorescence polarization competition”
as §2

| Compound | competition for Lin28_ZKD relative to parent unconjugated oligonucleotides (Lin28_ZKD [1]) | reduction of Lin28A (Lin28A [2]) | ubiquitination of myc-Lin28A (myc-Lin28A) | Lin28A pull-down signal (Lin28A [3]) | ubiquitination of QKI (QKI (pDEST-Myc-QKI)) | Kd (Lin28_ZKD [4]) |
| --- | --- | --- | --- | --- | --- | --- |
| CC[C@H](C)[C@H](NC(=O)[C@H](Cc1ccc(O)cc1)NC(=O)[C@@H]1C[C@@H](O)CN1C(=O)[C@H](C)NC(=O)[C@H](CC(C)C)NC(=O)CCCCCNC(=O)[C@@H](N)CSC1CC(=O)N(CCOP(=O)(S)OC[C@H]2O[C@@H](n3cnc4c(N)ncnc43)[C@H](OCCOC)[C@@H]2OP(=O)(S)OC[C@H]2O[C@@H](n3cnc4c(=O)[nH]c(N)nc43)[C@H](OCCOC)[C@@H]2OP(=O)(S)OC[C@H]2O[C@@H](n3cnc4c(=O)[nH]c(N)nc43)[C@H](OCCOC)[C@@H]2OP(=O)(S)OC[C@H]2O[C@@H](n3cnc4c(N)ncnc43)[C@H](OCCOC)[C@@H]2OP(=O)(S)OC[C@H]2O[C@@H](n3cnc4c(=O)[nH]c(N)nc43)[C@H](OCCOC)[C@@H]2OP(=O)(S)OC[C@H]2O[C@@H](n3cnc4c(N)ncnc43)[C@H](OCCOC)[C@@H]2OP(=O)(S)OC[C@H]2O[C@@H](n3cc(C)c(=O)[nH]c3=O)[C@H](OCCOC)[C@@H]2OP(=O)(S)OC[C@H]2O[C@@H](n3cnc4c(N)ncnc43)[C@H](OCCOC)[C@@H]2OP(=O)(S)OC[C@H]2O[C@@H](n3cnc4c(N)ncnc43)[C@H](OCCOC)[C@@H]2OP(=O)(S)OC[C@H]2O[C@@H](n3cc(C)c(N)nc3=O)[C@H](OCCOC)[C@@H]2OP(=O)(S)OC[C@H]2O[C@@H](n3cc(C)c(=O)[nH]c3=O)[C@H](OCCOC)[C@@H]2O)C1=O)C(=O)O (stereo partly drawn) [ORN7P1] | competed slightly more strongly | ~50% | showed a smear on the gel towards higher molecular weight | strong signal for Lin28A protein | showed no such effects |  |
| Let7FAM: FAM_GGGGUAGUGAUUU UACCCUGUUCAGGAGAU, PO-RNA; fluorescent probe ({FAM}-rGrGrGrGrUrArGrUrGrArUrUrUrUrArCrCrCrUrGrUrUrCrArGrGrArGrArU) |  |  |  |  |  | 27 nM |

Source: publication PMC7898822, “RNA‐PROTACs: Degraders of RNA‐Binding Proteins” (Angewandte Chemie (International Ed. in English), 2020)
